Measurements as given in US6673813B2, “Methods for identifying and treating resistant tumors” (priority 1994, dated 2004).
In brackets after ≈: the same amount, converted by molar mass. Like-named read-outs stand apart in the source and are kept apart here.

Tests used:
[1] = biological target: T1, MRP (Homo sapiens, UniProt P33527); test: ATP-dependent transport of [3H]etoposide glucuronide / [3H]etoposide into membrane vesicles from MRP-overexpressing cells; details: direct transport measurement in membrane vesicles
T1 sequence (P33527 whole entry): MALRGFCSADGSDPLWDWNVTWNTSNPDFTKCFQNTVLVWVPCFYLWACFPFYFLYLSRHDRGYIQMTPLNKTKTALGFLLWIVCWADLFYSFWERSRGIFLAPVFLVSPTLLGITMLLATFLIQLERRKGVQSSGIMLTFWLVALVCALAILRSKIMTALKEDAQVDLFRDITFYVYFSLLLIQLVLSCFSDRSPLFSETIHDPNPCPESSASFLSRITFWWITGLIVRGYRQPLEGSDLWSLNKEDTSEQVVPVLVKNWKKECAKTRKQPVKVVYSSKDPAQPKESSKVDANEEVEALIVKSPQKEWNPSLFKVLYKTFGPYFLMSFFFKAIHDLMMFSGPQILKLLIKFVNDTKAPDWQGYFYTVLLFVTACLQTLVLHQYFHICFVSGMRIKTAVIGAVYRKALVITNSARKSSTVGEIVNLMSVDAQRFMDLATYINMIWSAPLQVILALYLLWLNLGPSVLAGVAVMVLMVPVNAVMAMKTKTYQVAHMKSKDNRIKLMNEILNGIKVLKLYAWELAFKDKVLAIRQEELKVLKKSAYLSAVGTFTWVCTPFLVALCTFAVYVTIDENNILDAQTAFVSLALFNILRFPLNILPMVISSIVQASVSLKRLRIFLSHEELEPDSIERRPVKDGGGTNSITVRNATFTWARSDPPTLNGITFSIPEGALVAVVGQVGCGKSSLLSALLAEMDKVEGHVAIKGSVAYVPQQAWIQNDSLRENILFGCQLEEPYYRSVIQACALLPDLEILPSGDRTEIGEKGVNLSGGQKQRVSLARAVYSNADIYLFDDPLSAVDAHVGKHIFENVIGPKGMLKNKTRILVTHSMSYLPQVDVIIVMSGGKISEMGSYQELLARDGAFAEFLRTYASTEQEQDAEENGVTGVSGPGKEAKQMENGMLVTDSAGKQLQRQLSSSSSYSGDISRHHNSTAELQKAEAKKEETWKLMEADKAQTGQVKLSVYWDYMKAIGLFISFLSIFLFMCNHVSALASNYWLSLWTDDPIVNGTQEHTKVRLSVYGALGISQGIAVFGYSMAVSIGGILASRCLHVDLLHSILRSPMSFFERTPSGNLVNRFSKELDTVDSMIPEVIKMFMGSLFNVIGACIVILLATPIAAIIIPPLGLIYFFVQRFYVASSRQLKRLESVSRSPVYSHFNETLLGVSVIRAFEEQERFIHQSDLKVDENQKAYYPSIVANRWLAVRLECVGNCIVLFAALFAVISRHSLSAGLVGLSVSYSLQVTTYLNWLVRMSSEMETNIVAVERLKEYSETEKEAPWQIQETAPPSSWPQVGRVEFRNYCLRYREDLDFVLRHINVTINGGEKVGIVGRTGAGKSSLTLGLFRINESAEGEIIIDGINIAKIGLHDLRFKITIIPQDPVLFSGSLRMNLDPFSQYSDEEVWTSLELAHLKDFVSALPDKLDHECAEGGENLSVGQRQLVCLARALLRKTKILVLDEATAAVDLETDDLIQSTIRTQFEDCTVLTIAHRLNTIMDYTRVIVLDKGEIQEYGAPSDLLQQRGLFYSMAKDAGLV
Description: FIG. 5, Panel A illustrates the ATP-dependent transport of [^3H]etoposide glucuronide into membrane vesicles from MRP-overexpressing cells. Panel B provides a comparison of MRP-mediated ATP-dependent transport of [^3H]etoposide glucuronide and [^3H]etoposide into membrane vesicles from MRP-overexpressing cells.

[2] = biological target: T1, MRP; test: ATP-dependent transport into membrane vesicles of MRP-overexpressing HL60/ADR cells; format: biochemical; parameters: HL60/ADR cells (human leukemia cells grown in adriamycin and overexpressing MRP); endogenous in cells; host or cells: HL60/ADR (Adriamycin-selected human HL60 leukemia cells), plasma membrane vesicles
Description: (§1) HL60/ADR cells (human leukemia cells grown in adriamycin and overexpressing MRP), revertant HL60 cells, and parental HL60 cells, respectively, were harvested by centrifugation after cultivation in cell culture and plasma membrane vesicles were prepared according to standard methods. Briefly, the cells were lysed by incubation in hypotonic buffer (0.5 mM sodium phosphate (pH 7.0), 0.1 mM EDTA supplemented with protease inhibitors) for 1.5 hours, followed by homogenization in a homogenizer. After centrifugation of the homogenate at 12,000×g(4° C., 10 minutes), the supernatant was centrifuged at 100,000×g at 4° C. for 45 minutes. […] After centrifugation at 280,000×g at 4° C. for 2 hours, the interphase was collected, washed by centrifugation in incubation buffer (100,000×g) and passed 20 times through a 27-gauge needle.
Membrane vesicles (50 μg of protein) were incubated in the presence of 4 mM ATP, 10 mM MgCl2, 10 mM of creatine phosphate, and the labeled substrate in an incubation buffer containing 250 mM sucrose and 10 mM Tris-HCl, pH 7.4. The final volume was 110 μl. Aliquots of 20 μl were taken at predetermined times and diluted in 1 ml of ice-cold incubation buffer. The dilute samples were filtered immediately through a nitrocellulose membrane (0.2 μm pore size), presoaked in incubation buffer using a rapid filtration device and rinsed twice with 5 ml incubation buffer. The filters were immersed in liquid and measured in a liquid scintillation counter. ATP was replaced by an equal concentration of 5′-AMP in a control experiment. All rates of the ATP-dependent transport were obtained by subtracting the values obtained in the presence of 5′-AMP from those measured in the presence of ATP.

[3] = system: HL60/S cells; test: Cytotoxicity of oncolytics in sensitive HL60/S cells; format: cell-based; details: Homo sapiens, HL-60
Description: (§2) See Marquardt, D., McCrone, S., and Center M. S., Cancer Res., 50: 1426, (1990). The mechanism(s) utilized by P190 to confer resistance to Adriamycin is not well understood but may involve the intracellular redistribution of Adriamycin away from the nucleus. See Marquardt, D. and Center, M. S., supra. Adriamycin is an inhibitor of topoisomerase II (Beck, W. T., Bull. Cancer, 77: 1131, (1990), which is an enzyme involved in DNA replication. Redistribution of Adriamycin away from the nucleus would therefore be an important component in cellular resistance to this drug. The studies published to date on P190 have utilized cell lines selected in vitro for resistance to Adriamycin (McGrath, T., Latoud, C., Arnold, S. T., Safa, A. R., Felsted, R. S., and Center, M. S., supra; Marquardt, D. and Center, M. S., supra; and Marquardt, D., McCrone, S., and Center M. S. Cancer Res., supra. The association of MRP (P190) with drug resistance was made by sodium dodecyl sulfate polyacrylamide gel electrophoresis (SDS-PAGE) of radioactive extracts prepared from Adriamycin-resistant HL60/Adr human leukemia cells labeled with 8-azido-alpha[^32P]ATP. See McGrath, T., Latoud, C., Arnold, S. T., Safa, A. R., Felsted, R. S., and Center, M. S., supra. The drug-resistance phenotype conferred by P190 is not limited to the anthracyclines. Epipodophyllotoxin resistance is linked to P190 expression. […]

[4] = system: HL60/ADR cells; test: Cytotoxicity of oncolytics in doxorubicin-resistant HL60/Adr cells; format: cell-based; details: Homo sapiens
Description: as §2

[5] = system: membrane vesicles of parental and revertant HL60 cells; test: ATP-dependent transport into membrane vesicles of parental and revertant HL60 cells (low MRP expression); format: biochemical, human; details: substrate 5 μM
Description: as §1
Membrane vesicles (50 μg of protein) were incubated in the presence of 4 mM ATP, 10 mM MgCl2, 10 mM of creatine phosphate, and the labeled substrate in an incubation buffer containing 250 mM sucrose and 10 mM Tris-HCl, pH 7.4. The final volume was 110 μl. […] The filters were immersed in liquid and measured in a liquid scintillation counter. […] All rates of the ATP-dependent transport were obtained by subtracting the values obtained in the presence of 5′-AMP from those measured in the presence of ATP.

COc1cc([C@@H]2c3cc4c(cc3[C@@H](O[C@@H]3O[C@@H]5CO[C@@H](C)O[C@H]5[C@H](O)[C@H]3O)[C@H]3COC(=O)[C@H]23)OCO4)cc(OC)c1O[C@@H]1O[C@H](C(=O)O)[C@@H](O)[C@H](O)[C@H]1O [etoposide glucuronide]
substrate for MRP [1]: mediated by MRP

CCCCC/C=C\C\C=C/C=C/C=C/[C@@H](SC[C@H](N)C(=O)NCC(=O)O)[C@@H](O)CCCC(=O)O [LTD4]
substrate for the MRP protein [2]: substrates

CCCCC/C=C\C\C=C/C=C/C=C/[C@@H](SC[C@H](N)C(=O)O)[C@@H](O)CCCC(=O)O [LTE4]
substrate for the MRP protein [2]: substrates

COc1cccc2c1C(=O)c1c(O)c3c(c(O)c1C2=O)C[C@@](O)(C(=O)CO)C[C@@H]3O[C@H]1C[C@H](N)[C@H](O)[C@H](C)O1 [Adriamycin, Doxorubicin]
IC50 [3]: 0.011 µg/mL (≈ 0.0202 µM)
IC50 ([4]; HL60/ADR): 2.2 µg/mL (≈ 4.05 µM)

N[C@@H](CCC(=O)N[C@@H](CSc1ccc([N+](=O)[O-])cc1[N+](=O)[O-])C(=O)NCC(=O)O)C(=O)O [S-(2,4-dinitrophenyl-[^3H]glutathione, S-(2,4-dinitrophenyl)-[^3H]glutathione]
rate of ATP-dependent transport ([2]; substrate 5 μM, HL60/ADR membranes): 50+4 pmol×mg protein^−1×min^−1
transport rate compared with HL60/ADR membranes [5]: 10 times less

CCCCC/C=C\C\C=C/C=C/C=C/[C@@H](Sc1ccc(C(=O)O)cc1)[C@@H](O)CCCC(=O)O [BAY u9773]
type of inhibition of ATP-dependent LTC4 transport ([2]; double-reciprocal (Lineweaver and Burk) plot): competitive inhibition
Ki ([2]; inhibition of ATP-dependent transport of LTC4, vesicles of MRP-overexpressing cells, 37° C., 2 minutes, read-out: inhibition constant (Ki)): 700 nM

COc1cc([C@@H]2c3cc4c(cc3[C@@H](O[C@@H]3O[C@@H]5CO[C@@H](C)O[C@H]5[C@H](O)[C@H]3O)[C@H]3COC(=O)[C@H]23)OCO4)cc(OC)c1O [Etoposide]
IC50 [3]: 0.39 µg/mL (≈ 0.663 µM)
substrate for MRP [1]: not a substrate for MRP
IC50 ([4]; HL60/Adr cells (express P190), read-out: IC50): > 10 µg/mL
